# Test results as given in the supplement of paper PMC10307832.
# Experiments:
# Assay in all cases: relative viability (nuclei count vs DMSO), 5 days (fraction); higher = more cells survive
# A-427 = tested on: A-427
# In short: (§1)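 Relative viability is defined as nuclei in treated wells over nuclei in vehicle wells. Duplicate plates were run and medians reported. Lung cancer cell lines in 1536-well plates were dosed by pin tool one day after seeding, with one drug or with a fixed anchor-drug dose plus five library-drug doses (not always all listed) in √10 steps, and nuclei were counted after 5 days.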
# COR-L 105 = tested on: COR-L 105
# In short: as §1
# EPLC-272H = tested on: EPLC-272H
# In short: as §1
# HCC-366 = tested on: HCC-366
# In short: as §1
# HCC-78 = tested on: HCC-78
# In short: as §1
# HOP-62 = tested on: HOP-62
# In short: as §1
# LC-2-ad = tested on: LC-2-ad
# In short: as §1
# LU99A = tested on: LU99A
# In short: as §1
# LXF-289 = tested on: LXF-289
# In short: as §1
# NCI-H1666 = tested on: NCI-H1666
# In short: as §1
# NCI-H1793 = tested on: NCI-H1793
# In short: as §1
# NCI-H1915 = tested on: NCI-H1915
# In short: as §1
# NCI-H1944 = tested on: NCI-H1944
# In short: as §1
# NCI-H2009 = tested on: NCI-H2009
# In short: as §1
# NCI-H2085 = tested on: NCI-H2085
# In short: as §1
# NCI-H2170 = tested on: NCI-H2170
# In short: as §1
# NCI-H358 = tested on: NCI-H358
# In short: as §1
# NCI-H460 = tested on: NCI-H460
# In short: as §1
# SK-LU-1 = tested on: SK-LU-1
# In short: as §1
# SW 900 = tested on: SW 900
# In short: as §1
# UMC-11 = tested on: UMC-11
# In short: as §1
compound,measurement,setting,value
COc1nc(C)cnc1NS(=O)(=O)c1cccnc1-c1ccc(-c2nnco2)cc1 [Zibotentan] + Cc1cc(Nc2cc(N3CCN(C)CC3)nc(Sc3ccc(NC(=O)C4CC4)cc3)n2)n[nH]1 [Tozasertib] (partner 0.1 µM),relative viability,A-427; first compound 0.08 µM,0.232
same,relative viability,A-427; first compound 0.253 µM,0.205
same,relative viability,A-427; first compound 0.8 µM,0.25
same,relative viability,A-427; first compound 2.53 µM,0.258
same,relative viability,COR-L 105; first compound 0.08 µM,0.309
same,relative viability,COR-L 105; first compound 0.253 µM,0.344
same,relative viability,COR-L 105; first compound 0.8 µM,0.371
same,relative viability,COR-L 105; first compound 2.53 µM,0.362
same,relative viability,EPLC-272H; first compound 0.08 µM,0.264
same,relative viability,EPLC-272H; first compound 0.253 µM,0.234
same,relative viability,EPLC-272H; first compound 0.8 µM,0.331
same,relative viability,EPLC-272H; first compound 2.53 µM,0.281
same,relative viability,HCC-366; first compound 0.08 µM,0.132
same,relative viability,HCC-366; first compound 0.253 µM,0.0914
same,relative viability,HCC-366; first compound 0.8 µM,0.0627
same,relative viability,HCC-366; first compound 2.53 µM,0.156
same,relative viability,HCC-78; first compound 0.08 µM,0.526
same,relative viability,HCC-78; first compound 0.253 µM,0.393
same,relative viability,HCC-78; first compound 0.8 µM,0.306
same,relative viability,HCC-78; first compound 2.53 µM,0.435
same,relative viability,HOP-62; first compound 0.08 µM,0.333
same,relative viability,HOP-62; first compound 0.253 µM,0.371
same,relative viability,HOP-62; first compound 0.8 µM,0.428
same,relative viability,HOP-62; first compound 2.53 µM,0.359
same,relative viability,LC-2-ad; first compound 0.08 µM,0.436
same,relative viability,LC-2-ad; first compound 0.8 µM,0.574
same,relative viability,LC-2-ad; first compound 2.53 µM,0.452
same,relative viability,LU99A; first compound 0.08 µM,0.319
same,relative viability,LU99A; first compound 0.253 µM,0.25
same,relative viability,LU99A; first compound 0.8 µM,0.302
same,relative viability,LU99A; first compound 2.53 µM,0.301
same,relative viability,LXF-289; first compound 0.08 µM,0.212
same,relative viability,LXF-289; first compound 0.253 µM,0.161
same,relative viability,LXF-289; first compound 0.8 µM,0.227
same,relative viability,LXF-289; first compound 2.53 µM,0.225
same,relative viability,NCI-H1666; first compound 0.08 µM,0.582
same,relative viability,NCI-H1666; first compound 0.253 µM,0.593
same,relative viability,NCI-H1666; first compound 0.8 µM,0.784
same,relative viability,NCI-H1666; first compound 2.53 µM,0.646
same,relative viability,NCI-H1793; first compound 0.08 µM,0.336
same,relative viability,NCI-H1793; first compound 0.253 µM,0.352
same,relative viability,NCI-H1793; first compound 0.8 µM,0.273
same,relative viability,NCI-H1793; first compound 2.53 µM,0.3
same,relative viability,NCI-H1915; first compound 0.08 µM,0.453
same,relative viability,NCI-H1915; first compound 0.253 µM,0.409
same,relative viability,NCI-H1915; first compound 0.8 µM,0.428
same,relative viability,NCI-H1915; first compound 2.53 µM,0.417
same,relative viability,NCI-H1944; first compound 0.08 µM,0.252
same,relative viability,NCI-H1944; first compound 0.253 µM,0.236
same,relative viability,NCI-H1944; first compound 0.8 µM,0.242
same,relative viability,NCI-H1944; first compound 2.53 µM,0.271
same,relative viability,NCI-H2009; first compound 0.08 µM,0.769
same,relative viability,NCI-H2009; first compound 0.253 µM,0.72
same,relative viability,NCI-H2009; first compound 0.8 µM,0.778
same,relative viability,NCI-H2009; first compound 2.53 µM,0.756
same,relative viability,NCI-H2085; first compound 0.08 µM,0.788
same,relative viability,NCI-H2085; first compound 0.253 µM,0.698
same,relative viability,NCI-H2085; first compound 0.8 µM,0.703
same,relative viability,NCI-H2085; first compound 2.53 µM,0.821
same,relative viability,NCI-H2170; first compound 0.08 µM,0.789
same,relative viability,NCI-H2170; first compound 0.253 µM,0.693
same,relative viability,NCI-H2170; first compound 0.8 µM,0.809
same,relative viability,NCI-H2170; first compound 2.53 µM,0.741
same,relative viability,NCI-H358; first compound 0.08 µM,0.0974
same,relative viability,NCI-H358; first compound 0.253 µM,0.099
same,relative viability,NCI-H358; first compound 0.8 µM,0.0954
same,relative viability,NCI-H358; first compound 2.53 µM,0.0945
same,relative viability,NCI-H460; first compound 0.08 µM,0.625
same,relative viability,NCI-H460; first compound 0.253 µM,0.158
same,relative viability,NCI-H460; first compound 0.8 µM,0.106
same,relative viability,NCI-H460; first compound 2.53 µM,0.385
same,relative viability,SK-LU-1; first compound 0.08 µM,0.327
same,relative viability,SK-LU-1; first compound 0.253 µM,0.283
same,relative viability,SK-LU-1; first compound 0.8 µM,0.336
same,relative viability,SK-LU-1; first compound 2.53 µM,0.424
same,relative viability,SW 900; first compound 0.08 µM,0.553
same,relative viability,SW 900; first compound 0.253 µM,0.549
same,relative viability,SW 900; first compound 0.8 µM,0.617
same,relative viability,SW 900; first compound 2.53 µM,0.586
same,relative viability,UMC-11; first compound 0.08 µM,0.23
same,relative viability,UMC-11; first compound 0.253 µM,0.204
same,relative viability,UMC-11; first compound 0.8 µM,0.201
same,relative viability,UMC-11; first compound 2.53 µM,0.203
COc1nc(C)cnc1NS(=O)(=O)c1cccnc1-c1ccc(-c2nnco2)cc1 [Zibotentan] + O=C(CCCCCCC(=O)Nc1ccccc1)NO [Vorinostat] (partner 1 µM),relative viability,A-427; first compound 0.08 µM,0.921
same,relative viability,A-427; first compound 0.253 µM,0.848
same,relative viability,A-427; first compound 0.8 µM,0.905
same,relative viability,A-427; first compound 2.53 µM,0.928
same,relative viability,COR-L 105; first compound 0.08 µM,0.904
same,relative viability,COR-L 105; first compound 0.253 µM,0.756
same,relative viability,COR-L 105; first compound 0.8 µM,0.781
same,relative viability,COR-L 105; first compound 2.53 µM,0.99
same,relative viability,EPLC-272H; first compound 0.253 µM,0.506
same,relative viability,EPLC-272H; first compound 0.8 µM,0.667
same,relative viability,EPLC-272H; first compound 2.53 µM,0.501
same,relative viability,HCC-366; first compound 0.08 µM,0.461
same,relative viability,HCC-366; first compound 0.253 µM,0.248
same,relative viability,HCC-366; first compound 0.8 µM,0.21
same,relative viability,HCC-366; first compound 2.53 µM,0.358
same,relative viability,HCC-78; first compound 0.08 µM,0.482
same,relative viability,HCC-78; first compound 0.253 µM,0.347
same,relative viability,HCC-78; first compound 0.8 µM,0.382
same,relative viability,HCC-78; first compound 2.53 µM,0.48
same,relative viability,HOP-62; first compound 0.08 µM,0.676
same,relative viability,HOP-62; first compound 0.253 µM,0.57
same,relative viability,HOP-62; first compound 0.8 µM,0.735
same,relative viability,HOP-62; first compound 2.53 µM,0.623
same,relative viability,LC-2-ad; first compound 0.08 µM,0.751
same,relative viability,LC-2-ad; first compound 0.253 µM,0.723
same,relative viability,LC-2-ad; first compound 0.8 µM,0.739
same,relative viability,LC-2-ad; first compound 2.53 µM,0.731
same,relative viability,LU99A; first compound 0.08 µM,0.514
same,relative viability,LU99A; first compound 0.253 µM,0.537
same,relative viability,LU99A; first compound 0.8 µM,0.463
same,relative viability,LU99A; first compound 2.53 µM,0.477
same,relative viability,LXF-289; first compound 0.08 µM,0.769
same,relative viability,LXF-289; first compound 0.253 µM,0.713
same,relative viability,LXF-289; first compound 0.8 µM,0.766
same,relative viability,LXF-289; first compound 2.53 µM,0.746
same,relative viability,NCI-H1666; first compound 0.08 µM,1.17
same,relative viability,NCI-H1666; first compound 0.253 µM,0.95
same,relative viability,NCI-H1666; first compound 0.8 µM,1.04
same,relative viability,NCI-H1666; first compound 2.53 µM,1.1
same,relative viability,NCI-H1793; first compound 0.08 µM,0.673
same,relative viability,NCI-H1793; first compound 0.253 µM,0.673
same,relative viability,NCI-H1793; first compound 0.8 µM,0.925
same,relative viability,NCI-H1793; first compound 2.53 µM,0.973
same,relative viability,NCI-H1915; first compound 0.08 µM,0.679
same,relative viability,NCI-H1915; first compound 0.253 µM,0.53
same,relative viability,NCI-H1915; first compound 0.8 µM,0.548
same,relative viability,NCI-H1915; first compound 2.53 µM,0.572
same,relative viability,NCI-H1944; first compound 0.08 µM,0.674
same,relative viability,NCI-H1944; first compound 0.253 µM,0.533
same,relative viability,NCI-H1944; first compound 0.8 µM,0.508
same,relative viability,NCI-H1944; first compound 2.53 µM,0.631
same,relative viability,NCI-H2009; first compound 0.08 µM,0.705
same,relative viability,NCI-H2009; first compound 0.253 µM,0.705
same,relative viability,NCI-H2009; first compound 0.8 µM,0.72
same,relative viability,NCI-H2009; first compound 2.53 µM,0.893
same,relative viability,NCI-H2085; first compound 0.08 µM,0.762
same,relative viability,NCI-H2085; first compound 0.253 µM,0.766
same,relative viability,NCI-H2085; first compound 0.8 µM,0.769
same,relative viability,NCI-H2085; first compound 2.53 µM,0.824
same,relative viability,NCI-H2170; first compound 0.08 µM,0.883
same,relative viability,NCI-H2170; first compound 0.253 µM,0.778
same,relative viability,NCI-H2170; first compound 0.8 µM,0.875
same,relative viability,NCI-H2170; first compound 2.53 µM,0.908
same,relative viability,NCI-H358; first compound 0.08 µM,0.563
same,relative viability,NCI-H358; first compound 0.253 µM,0.552
same,relative viability,NCI-H358; first compound 2.53 µM,0.751
same,relative viability,NCI-H460; first compound 0.08 µM,0.673
same,relative viability,NCI-H460; first compound 0.253 µM,0.541
same,relative viability,NCI-H460; first compound 0.8 µM,0.739
same,relative viability,NCI-H460; first compound 2.53 µM,0.719
same,relative viability,SK-LU-1; first compound 0.08 µM,0.697
same,relative viability,SK-LU-1; first compound 0.253 µM,0.726
same,relative viability,SK-LU-1; first compound 0.8 µM,0.819
same,relative viability,SK-LU-1; first compound 2.53 µM,0.83
same,relative viability,SW 900; first compound 0.08 µM,0.559
same,relative viability,SW 900; first compound 0.253 µM,0.404
same,relative viability,SW 900; first compound 0.8 µM,0.552
same,relative viability,SW 900; first compound 2.53 µM,0.588
same,relative viability,UMC-11; first compound 0.08 µM,0.408
same,relative viability,UMC-11; first compound 0.253 µM,0.418
same,relative viability,UMC-11; first compound 0.8 µM,0.384
same,relative viability,UMC-11; first compound 2.53 µM,0.293
